In assay [1] the target is T1, fMet-Leu-Phe receptor 1/2 (Homo sapiens) (UniProt P21462+P25090). Put plainly: Agonist activity at FPR1/FPR2 receptor in human neutrophils assessed as increase in intracellular calcium concentration by spectrofluorophotometric analysis. Format: functional, cell-based.
The target in assay [2] is T1, fMet-Leu-Phe receptor 1/2 (Homo sapiens). As to the kind of experiment: Agonist activity at FPR1/FPR2 receptor in human neutrophils assessed as increase in intracellular calcium concentration at 0.1 uM by Fura-2-based spectrofluorophotometric analysis. The assay is classed as functional, cell-based. (In general: A change in cytosolic calcium serves as a functional read-out for many receptors and channels.)

In assay [3] the target is T2, fMet-Leu-Phe receptor 1/2 (Homo sapiens, UniProt P21462+P25090).
T2 sequence (P21462 whole entry): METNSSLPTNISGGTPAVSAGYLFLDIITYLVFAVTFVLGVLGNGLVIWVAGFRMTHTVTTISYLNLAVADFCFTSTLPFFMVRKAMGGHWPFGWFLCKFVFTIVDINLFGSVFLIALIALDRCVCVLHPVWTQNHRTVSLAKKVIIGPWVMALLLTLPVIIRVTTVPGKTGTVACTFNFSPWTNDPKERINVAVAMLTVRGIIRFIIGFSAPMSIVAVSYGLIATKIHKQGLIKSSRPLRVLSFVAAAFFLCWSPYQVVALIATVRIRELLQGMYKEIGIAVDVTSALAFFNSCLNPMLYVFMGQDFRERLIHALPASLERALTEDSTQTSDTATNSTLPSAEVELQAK
T2 sequence (P25090 whole entry): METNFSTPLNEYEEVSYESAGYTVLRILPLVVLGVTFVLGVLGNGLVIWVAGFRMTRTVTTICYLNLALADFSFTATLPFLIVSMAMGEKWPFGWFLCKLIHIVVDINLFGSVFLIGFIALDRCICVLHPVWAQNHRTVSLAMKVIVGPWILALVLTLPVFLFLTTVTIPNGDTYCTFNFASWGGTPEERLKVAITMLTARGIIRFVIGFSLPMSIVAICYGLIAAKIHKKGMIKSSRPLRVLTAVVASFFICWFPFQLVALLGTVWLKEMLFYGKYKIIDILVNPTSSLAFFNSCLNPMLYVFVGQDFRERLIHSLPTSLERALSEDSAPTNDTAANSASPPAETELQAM
Put plainly: Agonist activity at FPR1/FPR2 receptor in human neutrophils assessed as induction of superoxide radical generation by spectrophotometric analysis.

Assay [4] addresses T2, fMet-Leu-Phe receptor 1/2. Put plainly: Agonist activity at FPR1/FPR2 receptor in human neutrophils assessed as induction of chemotaxis after 60 mins.
Assay [5] addresses T1, fMet-Leu-Phe receptor 1/2 (Homo sapiens). Put plainly: Agonist activity at FPR1/FPR2 receptor in human neutrophils assessed as induction of superoxide radical generation at 1 uM by spectrophotometric analysis.
For assay [6] the target is unchanged. As to the kind of experiment: Agonist activity at FPR1/FPR2 receptor in human neutrophils assessed as induction of chemotaxis after 60 mins relative to fMLP-OMe.
For assay [7] the target is unchanged. Put plainly: Agonist activity at FPR1/FPR2 receptor in human neutrophils assessed as stimulation of fMLP-OMe-induced superoxide radical generation at 0.1 uM incubated for 5 mins followed by fMLP-OMe induction by spectrophotometric analysis relative to control.
Assay [8] deals with T3, N-formyl peptide receptor 2 (Homo sapiens) (UniProt P25090).
T3 sequence (whole entry): T2 sequence (P25090 whole entry)
As to the kind of experiment: Binding affinity to FPR2 receptor in human neutrophils assessed as induction of intracellular calcium mobilization at 1 uM in presence of MMK-1. Format: functional, cell-based.

The target in assay [9] is T1, fMet-Leu-Phe receptor 1/2 (Homo sapiens). Put plainly: Agonist activity at FPR1/FPR2 receptor in human neutrophils assessed as induction of superoxide radical generation at 1 uM by […] spectrophotometric analysis relative to fMLP-OMe.

Here are results for six molecules from ChEMBL document CHEMBL2331426, “A formyl peptide substituted with a conformationally constrained phenylalanine residue evokes a selective immune response in human neutrophils” (Bioorg Med Chem, 2013).

Each structure is given as a SMILES string. Calls of active or inactive are those of the source. No cut-off for these calls is given here.

As a reminder, the EC50 is the concentration at which the effect is half-maximal.

As to `CSCC[C@H](NC(=O)[C@H](Cc1ccc(O)cc1)NC(=O)[C@H](CCCCN)NC(=O)[C@@H](N)Cc1c[nH]c2ccccc12)C(=O)N[C@H](C(=O)N[C@H](CCSC)C(=O)O)C(C)C`, the result in [1] was Active.
As for `COC(=O)[C@H](Cc1ccccc1)NC(=O)[C@H](CC(C)C)NC(=O)[C@H](CCSC)NC=O`, the outcome in assay [2] was Active. In addition, the values for the concentration for a half-maximal effect (EC50) in assay [3] and in [4] were 16 nM and 2.5 nM, respectively.
Turning to `COC(=O)[C@@]1(NC(=O)[C@H](CC(C)C)NC(=O)[C@H](CCSC)NC=O)C[C@H]1c1ccccc1`, the results for the Activity in assay [5], in assay [6] and in [7] were 10%, 53% and 114%, respectively. The outcome in assay [2] was Active. In addition, the EC50 in assay [4] came to 4.7 nM. In addition, the result in assay [8] was inactive.
Turning to `COC(=O)[C@]1(NC(=O)[C@H](CC(C)C)NC(=O)[C@H](CCSC)NC=O)C[C@H]1c1ccccc1`, the Activity in [5] was 10%; in assay [9], 45%; in assay [6], 12%; in [7], 175%. Further, the result in [2] and in assay [8] was Active. The EC50 in [4] is reported as 21 nM.
With `CSCC[C@H](NC=O)C(=O)N[C@@H](CC(C)C)C(=O)N[C@]1(C(=O)O)C[C@@H]1c1ccccc1`, the result in assay [2] and in [8] was Active. The concentration for a half-maximal effect (EC50) was determined as 250 nM in [3] and 9.1 nM in [4]. Moreover, the Activity came out at 6.4% in assay [9], 26% in assay [6] and 200% in assay [7].
Regarding `COC(=O)[C@]1(NC(=O)[C@H](CC(C)C)NC(=O)[C@H](CCSC)NC=O)C[C@@H]1c1ccccc1`, the Activity in assay [5] stood at 10%; in assay [6], 18%; in assay [7], 114%. Besides, in [2], the result was Active. Further, the EC50 in assay [4] was found to be 14 nM. Also, in assay [8], the result was inactive.
